Test results reported in patent publication US5391540A, “Substituted pyridine compounds” (Rohm and Haas Company, priority 1993, dated 1995).

Columns and labels:
Test in all cases: Pre-emergent herbicidal activity (Table A)
Format in all cases: in vivo
Pennsylvania Smartweed = settings: pre-emergence, Pesw, 11.2 kg/ha, 10-14 days, read-out: herbicidal rating (% inhibition)
Experimental: (§1) The herbicidal ratings used in Tables A and B were assigned according to a scale based on the percent inhibition of each plant species. The herbicide rating symbols in Tables A and B are defined as follows: […]
(§2) One set of pre-emergent tests was conducted as follows:
(§3) Topsoil was placed in a pan and compacted to a depth of 0.95 to 1.27 cm. from the top of the pan. A predetermined number of seeds of each of several monocotyledonous and dicotyledonous annual plant species and/or vegetative propagules of various perennial plant species were placed on top of the soil. The soil required to level fill a pan after seeding or adding vegetative propagules was weighed into another pan. A known amount of the test compound dissolved or suspended in an organic solvent or water and applied in acetone or water as a carrier was thoroughly mixed with this cover soil, and the herbicide/soil mixture was used as a cover layer for the previously prepared pan.
(§4) The plant species usually regarded as weeds which were utilized in one set of pre-emergent activity tests, the data for which are shown in Table A, are identified by letter headings printed diagonally above the columns according to the following legend: […]

Morningglory = settings: Ipomoea, pre-emergence, Mogl, 11.2 kg/ha, 10-14 days, read-out: herbicidal rating (% inhibition)
Experimental: as §1, §2, §3, §4

Downy Brome = settings: Bromus tectorum, pre-emergence, Dobr, 11.2 kg/ha, 10-14 days, read-out: herbicidal rating (% inhibition)
Experimental: as §1, §2, §3, §4

Quackgrass = settings: pre-emergence, Rhqg, 11.2 kg/ha, 10-14 days, read-out: herbicidal rating (% inhibition)
Experimental: as §1, §2, §3, §4

Yellow Nutsedge = settings: Cyperus, pre-emergence, Yens, 11.2 kg/ha, 10-14 days, read-out: herbicidal rating (% inhibition)
Experimental: as §1, §2, §3, §4

Velvetleaf = settings: Abutilon theophrasti, pre-emergence, Vele, 11.2 kg/ha, 10-14 days, read-out: herbicidal rating (% inhibition)
Experimental: as §1, §2, §3, §4

Rhizome Johnsongrass = settings: Sorghum halepense, pre-emergence, Rhjg, 11.2 kg/ha, 10-14 days, read-out: herbicidal rating (% inhibition)
Experimental: as §1, §2, §3, §4

Common Lambsquarters = settings: Chenopodium album, pre-emergence, Colq, 11.2 kg/ha, 10-14 days, read-out: herbicidal rating (% inhibition)
Experimental: as §1, §2, §3, §4

Canada thistle = settings: Cirsium arvense, pre-emergence, Cath, 11.2 kg/ha, 10-14 days, read-out: herbicidal rating (% inhibition)
Experimental: as §1, §2, §3, §4

Barnyardgrass = settings: Echinochloa crus-galli, pre-emergence, Bygr, 11.2 kg/ha, 10-14 days, read-out: herbicidal rating (% inhibition)
Experimental: as §1, §2, §3, §4

Cocklebur = settings: Xanthium strumarium, pre-emergence, Cobu, 11.2 kg/ha, 10-14 days, read-out: herbicidal rating (% inhibition)
Experimental: as §1, §2, §3, §4

Compound | inhibition at 11200 g/ha (Pennsylvania Smartweed) [%] | inhibition at 11200 g/ha (Morningglory) [%] | inhibition at 11200 g/ha (Downy Brome) [%] | inhibition at 11200 g/ha (Quackgrass) [%] | inhibition at 11200 g/ha (Yellow Nutsedge) [%] | inhibition at 11200 g/ha (Velvetleaf) [%] | inhibition at 11200 g/ha (Rhizome Johnsongrass) [%] | inhibition at 11200 g/ha (Common Lambsquarters) [%] | inhibition at 11200 g/ha (Canada thistle) [%] | inhibition at 11200 g/ha (Barnyardgrass) [%] | inhibition at 11200 g/ha (Cocklebur) [%]
COC(=O)c1c(OC)nc(C(F)(F)F)c(C(=O)OC)c1CC(C)C [Compound 2, 3,5-pyridinedicarboxylic acid, 2-methoxy-4-(2-methylpropyl)-6-(trifluoromethyl)-, dimethyl ester] | 75 to 100 | 75 to 100 | 75 to 100 | 75 to 100 | 75 to 100 | 75 to 100 | 75 to 100 | 75 to 100 | 75 to 100 | 75 to 100 | 75 to 100
CCOC(=O)c1c(OCC)nc(C(F)(F)F)c(C(=O)OC)c1CC(C)C [Compound 3, 3,5-pyridinedicarboxylic acid, 2-ethoxy-4-(2-methylpropyl)-6-(trifluoromethyl)-, 3-ethyl 5-methyl ester, hydrate (1:0.4)] | 50 to 74 | 50 to 74 | 75 to 100 | 75 to 100 | 25 to 49 | 0 to 24 | 0 to 24 | 75 to 100 | 75 to 100 | 75 to 100 | 0 to 24
CCOC(=O)c1c(OC)nc(C(F)(F)F)c(C(=O)OC)c1CC(C)C [Compound 4, 3,5-pyridinedicarboxylic acid, 2-methoxy-4-(2-methylpropyl)-6-(trifluoromethyl)-, 3-ethyl 5-methyl ester] | 75 to 100 | 75 to 100 | 75 to 100 | 75 to 100 | 25 to 49 | 75 to 100 | 75 to 100 | 75 to 100 | 75 to 100 | 75 to 100 | 0 to 24
CCOC(=O)c1c(OC(C)C)nc(C(F)(F)F)c(C(=O)OC)c1CC(C)C [Compound 5, 3,5-pyridinedicarboxylic acid, 2-(1-methylethoxy)-4-(2-methylpropyl)-6-(trifluoromethyl)-, 3-ethyl 5-methyl ester] | 25 to 49 | 0 to 24 | 75 to 100 | 50 to 74 | 0 to 24 | 0 to 24 | 75 to 100 | 75 to 100 | 0 to 24 | 75 to 100 | 0 to 24
COC(=O)c1c(OC)nc(C(F)(F)F)c(C(=O)OC)c1C1CC1 [Compound 9, 3,5-pyridinedicarboxylic acid, 4-cyclopropy1-2-methoxy-6-(trifluoromethyl)-, dimethyl ester] | 75 to 100 | 75 to 100 | 75 to 100 | 75 to 100 | 75 to 100 | 75 to 100 | 75 to 100 | 75 to 100 | 75 to 100 | 75 to 100 | 0 to 24
CCOC(=O)c1c(C(F)(F)C(F)(F)F)nc(OC)c(C(=O)OC)c1CC(C)C [Compound 11, 3,5-pyridinedicarboxylic acid, 2-methoxy-4-(2-methylpropyl)-6-(pentafluoroethyl)-, 5-ethyl 3-methyl ester] | 75 to 100 | 50 to 74 | 75 to 100 | 75 to 100 | 75 to 100 | 25 to 49 | 0 to 24 | 75 to 100 | 25 to 49 | 75 to 100 | 0 to 24
COc1nc(C(F)(F)F)c(C(=O)SC)c(C2CC2)c1C(=O)SC [Compound 12, 3,5-pyridinedicarbothioic acid, 4-cyclopropy1-2-methoxy-6-(trifluoromethyl)-, S,S-dimethyl ester] | 75 to 100 | 75 to 100 | 75 to 100 | 75 to 100 | 25 to 49 | 75 to 100 | 0 to 24 | 75 to 100 | 25 to 49 | 75 to 100 | 25 to 49
COC(=O)c1c(C(F)(F)F)nc(OC)c(-n2cccc2)c1CC(C)C [Compound 14, 3-pyridinecarboxylic acid, 6-methoxy-4-(2-methylpropyl)-5-(1H-pyrro1-1-yl)-2-(trifluoromethyl)-, methyl ester] | 75 to 100 | 75 to 100 | 75 to 100 | 50 to 74 | 0 to 24 | 75 to 100 | 75 to 100 | 75 to 100 | 75 to 100 | 75 to 100 | 0 to 24
COC(=O)c1c(OC)nc(C(F)(F)F)c(-n2cccc2)c1CC(C)C [Compound 15, 3-pyridinecarboxylic acid, 2-methoxy-4-(2-methylpropyl)-5-(1H-pyrro1-1-yl)-6-(trifluoromethyl)-, methyl ester] | 75 to 100 | 75 to 100 | 75 to 100 | 75 to 100 | 25 to 49 | 75 to 100 | 75 to 100 | 75 to 100 | 75 to 100 | 75 to 100 | 0 to 24
CCCCOC(=O)c1c(C(F)(F)F)nc(OC)c(C(=O)OC)c1CC(C)C [Compound 16, 3,5-pyridinedicarboxylic acid, 2-methoxy-4-(2-methylpropyl)-6-(trifluoromethyl)-, 5 butyl 3-methyl ester] | 75 to 100 | 75 to 100 | 75 to 100 | 75 to 100 | 0 to 24 | 75 to 100 | 0 to 24 | 75 to 100 | 50 to 74 | 75 to 100 | 0 to 24
CCOc1nc(C(F)(F)F)c(C(=O)SC)c(CC(C)C)c1C(=O)SC [Compound 19, 3,5-pyridinedicarbothioic acid, 2-ethoxy-4-(2-methylpropyl)-6-(trifluoromethyl)-, S,S-dimethyl ester] | 75 to 100 | 50 to 74 |  | 75 to 100 | 0 to 24 | 75 to 100 | 0 to 24 | 75 to 100 | 25 to 49 | 75 to 100 | 25 to 49
COC(=O)c1c(C(F)(F)F)nc(OC)c(C#N)c1CC(C)C [Compound 20, 3-pyridinecarboxylic acid, 5-cyano-6-methoxy-4-(2-methylpropyl)-2-(trifluoromethyl)-, methyl ester] | 25 to 49 | 50 to 74 | 75 to 100 | 75 to 100 | 0 to 24 | 0 to 24 | 75 to 100 | 75 to 100 | 0 to 24 | 75 to 100 | 0 to 24
CNC(=O)c1c(OC)nc(C(F)(F)F)c(C(=O)OC)c1CC(C)C [Compound 21, 3-pyridinecarboxylic acid, 6-methoxy-5-[(methylamino)carbonyl]-4-(2-methylpropyl)-2-(trifluoromethyl)-, methyl ester] | 0 to 24 | 0 to 24 | 75 to 100 | 75 to 100 | 0 to 24 | 0 to 24 | 0 to 24 | 75 to 100 | 0 to 24 | 75 to 100 | 0 to 24
